Measurements taken from patent publication US9181588B2, “Methods of treating breast cancer with taxane therapy” (The University of Utah Research Foundation, priority 2011, dated 2015).

Tested on: node-positive breast cancers
Assay: GEICAM/9906 randomized phase III adjuvant trial, FEC versus FEC-P: overall and disease-free survival, by PAM50 proliferation score
Format: in vivo, human
Settings: FEC-P vs. FEC; lowest quartile of 11-gene proliferation score
Description: The primary endpoint of the […]/9906 clinical trial was disease-free survival. Secondary endpoints were: (a) overall survival; (b) prognostic and predictive value of molecular/genomic markers and (c) safety. The study was performed in accordance with the Declaration of Helsinki, approved by the ethics committees at all participating institutions and the Spanish Health Authority, and it was registered at www.clinicaltrials.gov (identifier code: NCT00129922). All patients provided written informed consent for therapy randomization and molecular analyses. […] Samples were gene expression profiled using the previously described RT-qPCR assay and analyzed using the clinical algorithm for subtype prediction (Parker et al., J Clin Oncol 27:1160-1167, 2009; Amp Laboratories: PAM50 Breast Cancer Intrinsic Classifier Information. at the World Wide Web (www) aruplab.com/Lab-Tests/General-Oncology/PAM50/index.jsp). […] In addition to the subtype classification, a PAM50proliferation score was calculated using the previously described 11-gene signature (BIRC5, CCNB1, CDC20, CDCA1, CEP55, KNTC2, MKI67, PTTG1, RRM2, TYMS, UBE2C) (Nielsen et al., Clin Cancer Res 16(21):5222-32, 2010). The significance of proliferation was evaluated using a classification into quartiles, and using the proliferation scores as a continuous variable. […]

CC(=O)O[C@H]1C(=O)[C@@]2(C)[C@H]([C@H](OC(=O)c3ccccc3)[C@]3(O)C[C@H](OC(=O)[C@H](O)[C@@H](NC(=O)c4ccccc4)c4ccccc4)C(C)=C1C3(C)C)[C@]1(OC(C)=O)CO[C@@H]1C[C@@H]2O [paclitaxel]
HR for OS, low proliferation score: 0.232
